From ChEMBL document CHEMBL1255337, “Entecavir exhibits inhibitory activity against human immunodeficiency virus under conditions of reduced viral challenge” (Antimicrob Agents Chemother, 2008)
The source made the active and inactive calls. The rule behind the calls is not given here.

Experiments:
[1] = tested on: Human immunodeficiency virus 1; assay type: functional, organism-based; conditions: Human immunodeficiency virus 1, NL4-3, MT2
[2] = tested on: Human immunodeficiency virus 1; experiment: microbe, parasite or virus in culture; conditions: Human immunodeficiency virus 1, subtype B-LAI, MT2
Description: Antiviral activity against HIV1 subtype B-LAI infected in 1 hr-pretreated human MT2 cells assessed as inhibition of multicycle replication measured on day 5 postinfection by RT SPA

Hepatitis B virus = experiment: Antiviral activity against Hepatitis B virus; assay type: functional, organism-based
[3] = tested on: Human immunodeficiency virus 1; experiment: Antiviral activity against HIV1 NL4-3 harboring M184L mutant RT infected in human MT2 cellssmeasured after 7 passages on day 34 postinfection; assay type: functional, organism-based; conditions: Human immunodeficiency virus 1, NL4-3, MT2
[4] = tested on: Human immunodeficiency virus 1; experiment: Antiviral activity against 0.006 MOI HIV1 NL4-3 infected in human MT2 cells measured after 5 days by RT SPA; assay type: functional, organism-based; conditions: Human immunodeficiency virus 1, NL4-3, MT2, 120 h
[5] = tested on: Human immunodeficiency virus 1; experiment: Antiviral activity against pseudotype HIV1 LAI-Luc infected in human MT2 cells measured on day 3 postinfection by luciferase reporter gene assay; assay type: functional, organism-based; conditions: Human immunodeficiency virus 1, LAI-Luc, MT2, 72 h
[6] = tested on: Human immunodeficiency virus 1; experiment: microbe, parasite or virus in culture; conditions: Human immunodeficiency virus 1, NL4-3, MT2, 120 h
Description: Antiviral activity against 0.02 MOI wild type HIV1 NL4-3 infected in human MT2 cells measured after 5 days by RT SPA

[7] = tested on: Human immunodeficiency virus 1; experiment: microbe, parasite or virus in culture; conditions: Human immunodeficiency virus 1, NL4-3, MT2, 120 h; remark: listed apart in the source
Description: Antiviral activity against 0.01 MOI wild type HIV1 NL4-3 infected in human MT2 cells measured after 5 days by MTS assay

[8] = tested on: Human immunodeficiency virus 1; experiment: microbe, parasite or virus in culture; conditions: Human immunodeficiency virus 1, subtype B-92US076, PBMC
Description: Antiviral activity against HIV1 subtype B-92US076 infected in 1 hr-pretreated PBMC cells assessed as inhibition of p24 antigen production measured on day 5 postinfection by ELISA

[9] = tested on: Human immunodeficiency virus 1; experiment: microbe, parasite or virus in culture; conditions: Human immunodeficiency virus 1, subtype B-ASM 044, PBMC
Description: Antiviral activity against HIV1 subtype B-ASM 044 infected in 1 hr-pretreated PBMC cells assessed as inhibition of p24 antigen production measured on day 5 postinfection by ELISA

[10] = tested on: Human immunodeficiency virus 1; experiment: microbe, parasite or virus in culture; conditions: Human immunodeficiency virus 1, NL4-3, MT2, 120 h; remark: listed apart in the source
Description: Antiviral activity against 0.05 MOI wild type HIV1 NL4-3 infected in human MT2 cells measured after 5 days by MTS assay

[11] = tested on: Human immunodeficiency virus 1; experiment: microbe, parasite or virus in culture; conditions: Human immunodeficiency virus 1, NL4-3, MT2, 120 h; remark: listed apart in the source
Description: Antiviral activity against 0.005 MOI wild type HIV1 NL4-3 infected in human MT2 cells measured after 5 days by MTS assay

[12] = tested on: Human immunodeficiency virus 1; experiment: microbe, parasite or virus in culture; conditions: Human immunodeficiency virus 1, NL4-3, MT2
Description: Antiviral activity against 0.01 MOI wild type HIV1 NL4-3 infected in 2 hr-pretreated human MT2 cells measured after 5 days by MTS assay

[13] = tested on: Human immunodeficiency virus 1; experiment: microbe, parasite or virus in culture; conditions: Human immunodeficiency virus 1, NL4-3, MT2; remark: listed apart in the source
Description: Antiviral activity against 0.02 MOI wild type HIV1 NL4-3 infected in 2 hr-pretreated human MT2 cells measured after 5 days by MTS assay

[14] = tested on: Human immunodeficiency virus 1; experiment: Antiviral activity against HIV1 subtype B-NL4-3 infected in 3 hrs pretreated human MT2 cells assessed as inhibition of multicycle replication measured on day 5 postinfection by RT SPA; assay type: functional, organism-based; conditions: Human immunodeficiency virus 1, subtype B-NL4-3, MT2
[15] = tested on: Human immunodeficiency virus 1; experiment: microbe, parasite or virus in culture; conditions: Human immunodeficiency virus 1, subtype B-ASM 034, PBMC
Description: Antiviral activity against HIV1 subtype B-ASM 034 infected in 1 hr-pretreated PBMC cells assessed as inhibition of p24 antigen production measured on day 5 postinfection by ELISA

[16] = tested on: Human immunodeficiency virus 1; experiment: Antiviral activity against 0.006 MOI HIV1 NL4-3 infected in 1 hr-pretreated human MT2 cells measured after 5 days by RT SPA; assay type: functional, organism-based; conditions: Human immunodeficiency virus 1, NL4-3, MT2
[17] = Cmax in human blood; assay type: ADME, organism-based
[18] = tested on: Human immunodeficiency virus 1; experiment: microbe, parasite or virus in culture; conditions: Human immunodeficiency virus 1, NL4-3, MT2; remark: listed apart in the source
Description: Antiviral activity against 0.005 MOI wild type HIV1 NL4-3 infected in 2 hr-pretreated human MT2 cells measured after 5 days by MTS assay

[19] = tested on: Human immunodeficiency virus 1; experiment: microbe, parasite or virus in culture; conditions: Human immunodeficiency virus 1, NL4-3, MT2, 120 h; remark: listed apart in the source
Description: Antiviral activity against 0.02 MOI wild type HIV1 NL4-3 infected in human MT2 cells measured after 5 days by MTS assay

[20] = tested on: Human immunodeficiency virus 1; experiment: microbe, parasite or virus in culture; conditions: Human immunodeficiency virus 1, subtype B-NL4-3, MT2
Description: Antiviral activity against HIV1 subtype B-NL4-3 infected in 1 hr-pretreated human MT2 cells assessed as inhibition of multicycle replication measured on day 5 postinfection by RT SPA

[21] = tested on: Human immunodeficiency virus 1; experiment: microbe, parasite or virus in culture; conditions: Human immunodeficiency virus 1, NL4-3, MT2; remark: listed apart in the source
[22] = tested on: Human immunodeficiency virus 1; experiment: microbe, parasite or virus in culture; conditions: Human immunodeficiency virus 1, NL4-3, MT2, 120 h; remark: listed apart in the source
Description: Antiviral activity against 0.05 MOI wild type HIV1 NL4-3 infected in human MT2 cells measured after 5 days by RT SPA

[23] = tested on: Human immunodeficiency virus 1; experiment: microbe, parasite or virus in culture; conditions: Human immunodeficiency virus 1, NL-RLuc, MT2, 120 h
Description: Antiviral activity against pseudotype HIV1 NL-RLuc infected in human MT2 cells measured on day 5 postinfection by luciferase reporter gene assay

[24] = tested on: Human immunodeficiency virus 1; experiment: microbe, parasite or virus in culture; conditions: Human immunodeficiency virus 1, NL4-3, MT2, 120 h; remark: listed apart in the source
Description: Antiviral activity against 0.01 MOI wild type HIV1 NL4-3 infected in human MT2 cells measured after 5 days by RT SPA

[25] = tested on: Human immunodeficiency virus; experiment: Antiviral activity against HIV infected in CD4+ lymphocyte by fluorescence-activated cell sorter assay; assay type: functional, organism-based; conditions: Human immunodeficiency virus 1
[26] = tested on: Human immunodeficiency virus 1; experiment: microbe, parasite or virus in culture; conditions: Human immunodeficiency virus 1, NL4-3, MT2; remark: listed apart in the source
Description: Antiviral activity against 0.05 MOI wild type HIV1 NL4-3 infected in 2 hr-pretreated human MT2 cells measured after 5 days by RT SPA

[27] = tested on: Human immunodeficiency virus 1; experiment: Antiviral activity against HIV1 3B infected in MOLT-4/3B cells assessed as inhibition of mature virus release measured after 4 days of infection by RT assay; assay type: functional, organism-based; conditions: Human immunodeficiency virus 1, 3B, MOLT-4, 96 h
[28] = tested on: Human immunodeficiency virus 1; experiment: Antiviral activity against pseudotype HIV1 LAI-Luc infected in CD4-positive human HeLa cells measured on day 3 postinfection by luciferase reporter gene assay; assay type: functional, organism-based; conditions: Human immunodeficiency virus 1, LAI-Luc, 72 h
[29] = tested on: Human immunodeficiency virus 1; experiment: microbe, parasite or virus in culture; conditions: Human immunodeficiency virus 1, subtype B-RF, MT2
Description: Antiviral activity against HIV1 subtype B-RF infected in 1 hr-pretreated human MT2 cells assessed as inhibition of multicycle replication measured on day 5 postinfection by RT SPA

[30] = tested on: Human immunodeficiency virus 1; experiment: Antiviral activity against HIV1 infected in human CEM-SS cells after 10 days by MTT assay; assay type: functional, organism-based; conditions: Human immunodeficiency virus 1, CEM-SS, 240 h
[31] = tested on: Human immunodeficiency virus 1; assay type: functional, organism-based; conditions: Human immunodeficiency virus 1, NL4-3, MT2; remark: listed apart in the source
[32] = tested on: Human immunodeficiency virus 1; experiment: Antiviral activity against HIV1 subtype B-NL4-3 infected in 2 hrs pretreated human MT2 cells assessed as inhibition of multicycle replication measured on day 5 postinfection by RT SPA; assay type: functional, organism-based; conditions: Human immunodeficiency virus 1, subtype B-NL4-3, MT2
[33] = tested on: Human immunodeficiency virus 1; experiment: Antiviral activity against pseudotype HIV1 NL-Luc infected in 24 hrs pretreated HEK293 cells by phenosense assay; assay type: functional, organism-based; conditions: Human immunodeficiency virus 1, NL-Luc
[34] = tested on: Human immunodeficiency virus 1; experiment: microbe, parasite or virus in culture; conditions: Human immunodeficiency virus 1, NL4-3, MT2; remark: listed apart in the source
Description: Antiviral activity against 0.02 MOI wild type HIV1 NL4-3 infected in 2 hr-pretreated human MT2 cells measured after 5 days by RT SPA

[35] = tested on: Human immunodeficiency virus 1; experiment: microbe, parasite or virus in culture; conditions: Human immunodeficiency virus 1, subtype B-SF-2, MT2
Description: Antiviral activity against HIV1 subtype B-SF-2 infected in 1 hr-pretreated human MT2 cells assessed as inhibition of multicycle replication measured on day 5 postinfection by RT SPA

[36] = tested on: Human immunodeficiency virus 1; experiment: microbe, parasite or virus in culture; conditions: Human immunodeficiency virus 1, subtype B-HXB2, MT2
Description: Antiviral activity against HIV1 subtype B-HXB2 infected in 1 hr-pretreated human MT2 cells assessed as inhibition of multicycle replication measured on day 5 postinfection by RT SPA

[37] = tested on: Human immunodeficiency virus 1; experiment: microbe, parasite or virus in culture; conditions: Human immunodeficiency virus 1, NL4-3, MT2, 120 h; remark: listed apart in the source
Description: Antiviral activity against 0.005 MOI wild type HIV1 NL4-3 infected in human MT2 cells measured after 5 days by RT SPA

[38] = tested on: Human immunodeficiency virus 1; assay type: functional, organism-based; conditions: NL4-3, 2.5 uM
[39] = tested on: Human immunodeficiency virus 1; experiment: microbe, parasite or virus in culture; conditions: Human immunodeficiency virus 1, subtype B-3B, MT2
Description: Antiviral activity against HIV1 subtype B-3B infected in 1 hr-pretreated human MT2 cells assessed as inhibition of multicycle replication measured on day 5 postinfection by RT SPA

[40] = tested on: Human immunodeficiency virus 1; experiment: Antiviral activity against 0.005 MOI HIV1 NL4-3 harboring wild type RT infected in human MT2 cells by phenosense assay; assay type: functional, organism-based; conditions: Human immunodeficiency virus 1, NL4-3, MT2
[41] = tested on: Human immunodeficiency virus 1; experiment: microbe, parasite or virus in culture; conditions: Human immunodeficiency virus 1, NL4-3, MT2; remark: listed apart in the source
Description: Antiviral activity against 0.01 MOI wild type HIV1 NL4-3 infected in 2 hr-pretreated human MT2 cells measured after 5 days by RT SPA

[42] = tested on: Human immunodeficiency virus 1; experiment: Antiviral activity against 0.006 MOI HIV1 NL4-3 infected in 2 hr-pretreated human MT2 cells measured after 5 days by RT SPA; assay type: functional, organism-based; conditions: Human immunodeficiency virus 1, NL4-3, MT2
[43] = tested on: Human immunodeficiency virus 1; experiment: microbe, parasite or virus in culture; conditions: Human immunodeficiency virus 1, NL4-3, MT2; remark: listed apart in the source
Description: Antiviral activity against 0.05 MOI wild type HIV1 NL4-3 infected in 2 hr-pretreated human MT2 cells measured after 5 days by MTS assay

[44] = Cmax in human at 1 mg, po; conditions: in vivo
[45] = tested on: Human immunodeficiency virus 1; experiment: microbe, parasite or virus in culture; conditions: Human immunodeficiency virus 1, subtype B-93US143, PBMC
Description: Antiviral activity against HIV1 subtype B-93US143 infected in 1 hr-pretreated PBMC cells assessed as inhibition of p24 antigen production measured on day 5 postinfection by ELISA

[46] = tested on: Human immunodeficiency virus 1; experiment: Antiviral activity against pseudotype HIV1 LAI-Luc infected in human PBMC measured on day 3 postinfection by luciferase reporter gene assay; assay type: functional, organism-based; conditions: Human immunodeficiency virus 1, LAI-Luc, 72 h
CEM-SS = experiment: Cytotoxicity against human CEM-SS cells after 10 days by MTT assay; assay type: cell-based; conditions: 240 h
[47] = tested on: Human immunodeficiency virus 1; experiment: microbe, parasite or virus in culture; conditions: Human immunodeficiency virus 1, NL4-3, MT2; remark: listed apart in the source
Description: Antiviral activity against 0.005 MOI wild type HIV1 NL4-3 infected in 2 hr-pretreated human MT2 cells measured after 5 days by RT SPA

O=C1Nc2ccc(Cl)cc2[C@@](C#CC2CC2)(C(F)(F)F)O1 [EFAVIRENZ]
EC50 [1]: 0.0002 µM

C=C1[C@H](CO)[C@@H](O)C[C@@H]1n1cnc2c(=O)[nH]c(N)nc21.O [ENTECAVIR]
EC50 [2]: 0.071 µM | EC50 (Hepatitis B virus): 0.004 µM | EC50 [3]: > 10 µM | EC50 [4]: 0.151 µM | EC50 [5]: > 1.2 µM | EC50 [6]: 0.449 µM | EC50 [7]: > 2.9 µM | EC50 [8]: 0.062 µM | EC50 [9]: 0.026 µM | EC50 [10]: > 10 µM | EC50 [11]: 1.36 µM | EC50 [12]: > 9.69 µM | EC50 [13]: > 10 µM | EC50 [14]: > 10 µM | EC50 [15]: 0.109 µM | EC50 [16]: 0.287 µM | Cmax [17]: 30 nM | EC50 [18]: > 10 µM | EC50 [19]: > 6.35 µM | EC50 [20]: 0.085 µM | EC50 [21]: 0.056 µM | EC50 [22]: 6.45 µM | EC50 [23]: 1.3 µM | EC50 [24]: 0.095 µM | EC50 [25]: 0.0001 µM | EC50 [26]: > 10000 µM | EC50 [27]: > 38 µM | EC50 [28]: > 4 µM | EC50 [29]: 0.839 µM | EC50 [30]: > 10 µM | EC50 [31]: > 100 µM | EC50 [32]: 1.4 µM | EC50 [33]: 30.6 µM | EC50 [34]: > 10000 µM | EC50 [35]: 0.526 µM | EC50 [36]: 1.03 µM | EC50 [37]: 0.056 µM | Activity [38]: Active | EC50 [39]: 0.081 µM | EC50 [40]: 30.6 µM | EC50 [41]: 9.57 µM | EC50 [42]: 13.5 µM | EC50 [43]: > 10 µM | Cmax [44]: 30 nM | EC50 [1]: > 10 µM | EC50 [45]: 1.75 µM | EC50 [46]: > 2.5 µM | CC50 (CEM-SS): 21 µM | EC50 [47]: 3.62 µM

Nc1ccn([C@@H]2CS[C@H](CO)O2)c(=O)n1 [LAMIVUDINE]
EC50 [2]: 0.182 µM | EC50 [6]: 0.086 µM | EC50 [7]: 0.554 µM | EC50 [8]: 0.081 µM | EC50 [9]: 0.04 µM | EC50 [10]: 0.927 µM | EC50 [11]: 0.219 µM | EC50 [12]: 1.68 µM | EC50 [13]: 2.44 µM | EC50 [15]: 0.071 µM | EC50 [18]: 1.26 µM | EC50 [19]: 0.969 µM | EC50 [20]: 0.171 µM | EC50 [21]: 0.04 µM | EC50 [22]: 0.372 µM | EC50 [23]: 1.14 µM | EC50 [24]: 0.063 µM | EC50 [26]: 2.47 µM | EC50 [27]: > 100 µM | EC50 [29]: 0.105 µM | EC50 [34]: 1.99 µM | EC50 [35]: 0.183 µM | EC50 [36]: 0.202 µM | EC50 [37]: 0.04 µM | Activity [38]: inactive | EC50 [39]: 0.047 µM | EC50 [41]: 0.667 µM | EC50 [43]: 3.25 µM | EC50 [1]: > 10 µM | EC50 [45]: 0.85 µM | EC50 [47]: 0.462 µM

Cc1c(O)cccc1C(=O)N[C@@H](CSc1ccccc1)[C@H](O)CN1C[C@H]2CCCC[C@H]2C[C@H]1C(=O)NC(C)(C)C [NELFINAVIR]
EC50 [27]: 0.029 µM

Cc1cn([C@H]2C[C@H](N=[N+]=[N-])[C@@H](CO)O2)c(=O)[nH]c1=O [ZIDOVUDINE]
EC50 [2]: 0.0038 µM | EC50 [6]: 0.018 µM | EC50 [7]: 0.038 µM | EC50 [8]: 0.008 µM | EC50 [9]: 0.016 µM | EC50 [10]: 0.087 µM | EC50 [11]: 0.027 µM | EC50 [12]: 0.144 µM | EC50 [13]: 0.223 µM | EC50 [15]: 0.018 µM | EC50 [18]: 0.117 µM | EC50 [19]: 0.054 µM | EC50 [20]: 0.0049 µM | EC50 [21]: 0.01 µM | EC50 [22]: 0.043 µM | EC50 [23]: 0.016 µM | EC50 [24]: 0.008 µM | EC50 [26]: 0.249 µM | EC50 [27]: > 10 µM | EC50 [29]: 0.0029 µM | EC50 [34]: 0.209 µM | EC50 [35]: 0.0063 µM | EC50 [36]: 0.014 µM | EC50 [37]: 0.01 µM | EC50 [39]: 0.0012 µM | EC50 [41]: 0.075 µM | EC50 [43]: 0.302 µM | EC50 [1]: 0.005 µM | EC50 [45]: 0.034 µM | EC50 [47]: 0.051 µM
